Test system: PCl2 cells
Assay: Bt2cAMP concentration dependency of neurite formation rate (preliminary experiment)
Assay type: cell-based, rat
Settings: Bt2cAMP concentration in the medium 1.0 mM; 24 hours; FIG. 1
Method: Using rat adrenal medullary pheochromocytoma-derived PCl2 cells obtained from Riken BioResource Research Center as a model, the L-valine solutions prepared in Preparation Examples were evaluated for the neurite formation effect and the neural differential promoting effect thereof. When acted on by Bt2cAMP (dibutyryladenosine 3′,5′-cyclic monophosphate) or NGF, the PCl2 cells are known to stop growing and to grow nerve fibers and elongate sympathetic ganglionic neuron-like dendrites. Here, L-valine was introduced into the Bt2cAMP-inductive neurite formation process and the NGF-inductive neural differentiation process to thereby evaluate the neurite formation effect and the neural differentiation promoting effect thereof, and the effect of L-valine was compared with that of L-leucine and L-isolencine. Here, the PCl2 cells were cultivated using an RPMI-1640 medium containing 10% equine serum (inactivated), 5% bovine fetal serum (inactivated), 100 U/mL penicillin G and 100 μg/mL streptomycin, in a 5% CO2 vapor phase in an incubator at 37° C., and the resultant cells in an about 70% confluent state were peeled with a basal medium and used in the experiment. […] In FIG. 1, the neurite formation rate is expressed as ±SD, and SD is a standard deviation of the three experiments carried out in the same manner. […]

Row | Structure (SMILES) | neurite formation rate (maximum)
1 | CCCC(=O)Nc1ncnc2c1ncn2[C@@H]1O[C@@H]2COP(=O)(O)O[C@H]2[C@H]1OC(=O)CCC [Bt2cAMP, dibutyryladenosine 3′,5′-cyclic monophosphate] | 19.5%

Test system: PCl2 cells
Assay: NGF-inductive neural differentiation, neurofilament immunofluorescent staining
Assay type: cell-based, rat
Settings: NGF plus L-valine (sample 1) versus NGF only (comparative sample 2); 48 hours; FIG. 7
Method: (§1) Using rat adrenal medullary pheochromocytoma-derived PCl2 cells obtained from Riken BioResource Research Center as a model, the L-valine solutions prepared in Preparation Examples were evaluated for the neurite formation effect and the neural differential promoting effect thereof. When acted on by Bt2cAMP (dibutyryladenosine 3′,5′-cyclic monophosphate) or NGF, the PCl2 cells are known to stop growing and to grow nerve fibers and elongate sympathetic ganglionic neuron-like dendrites. Here, L-valine was introduced into the Bt2cAMP-inductive neurite formation process and the NGF-inductive neural differentiation process to thereby evaluate the neurite formation effect and the neural differentiation promoting effect thereof, and the effect of L-valine was compared with that of L-leucine and L-isolencine.
(§2) Here, the PCl2 cells were cultivated using an RPMI-1640 medium containing 10% equine serum (inactivated), 5% bovine fetal serum (inactivated), 100 U/mL penicillin G and 100 μg/mL streptomycin, in a 5% CO2 vapor phase in an incubator at 37° C., and the resultant cells in an about 70% confluent state were peeled with a basal medium and used in the experiment. In the following, the medium having the same composition as the medium used in cultivation of the PCl2 cells is referred to as “basal medium”.
A neurofilament was used as a neural differentiation marker. […]

Row | Structure (SMILES) | neurofilaments (bright spots in FITC fluorescently-stained image) versus NGF alone
2 | CC(C)[C@H](N)C(=O)O [L-valine] | larger number of bright spots

Test system: PCl2 cells
Assay: Bt2cAMP-inductive neurite formation effect
Assay type: cell-based, rat
Settings: 0.5 mM Bt2cAMP; RPMI-1640; 0.2 μM or 2 μM; FIG. 4
Method: as §1, §2
Here, for the judgement of positivity or negativity, 300 to 400 cells/well were observed.
In the same manner as in the above-mentioned preliminary experiment, a suspension of PCl2 cells was sown in a collagen-coated 96-well plate at 4.0×10^3 cells/90 μL/well, and cultivated therein in a 5% CO2 vapor phase at 37° C. for 24 hours. After the cultivation, Dulbecco PBS(−) containing 10 mM Bt2cAMP, and the L-valine solution prepared in Preparation Example 1 or Preparation Example 2 were added to each well each in an amount of 5 μL/well, and the cells were further cultivated for 24 hours. At this time, the Bt2cAMP concentration in the medium in each well was 0.5 mM.
Next, co-addition of valine and methionine to a medium was checked for the effect. In the same manner as above, Bt2cAMP was added to an RPMI-1640 medium where PCl2 cells were sown and cultivated in each well, and further, an L-valine solution, an L-methionine solution, or a solution of a mixture prepared by mixing L-valine and L-methionine at 1/1 was added thereto and the cells were further cultivated to check for the neurite formation rate. Regarding the concentration of the amino acid added to the RPMI-1640 medium, the concentration in the system using the L-valine solution or the L-methionine solution was 0.2 μM, and the concentration of L-valine and L-methionine in the system using the L-valine and L-methionine mixture solution was 0.1 μM each, totaling 0.2 μM.

Row | Structure (SMILES) | neurite formation promoting effect compared with L-valine
3 | CC(C)[C@@H](N)C(=O)O [D-valine] | same neurite formation promoting effect like that of L-valine
4 | CC(=O)N[C@H](C(=O)O)C(C)C [N-acetyl-L-valine] | same neurite formation promoting effect like that of L-valine

Same assay, conditions: 0.5 mM Bt2cAMP; RPMI-1640; amino acid concentration increased up to 200 μM

Row | Structure (SMILES) | change in the neurite formation ratio
5 | N=C(N)NCCC[C@H](N)C(=O)O [arginine] | could not provide any significant change
6 | N[C@@H](Cc1c[nH]c2ccccc12)C(=O)O [tryptophan] | could not provide any significant change
7 | N[C@@H](Cc1ccccc1)C(=O)O [phenylalanine] | could not provide any significant change
8 | NC(=O)CC[C@H](N)C(=O)O [glutamine] | could not provide any significant change
9 | N[C@@H](CC(=O)O)C(=O)O [aspartic acid] | could not provide any significant change
10 | N[C@@H](CCC(=O)O)C(=O)O [glutamic acid] | could not provide any significant change
11 | N[C@@H](Cc1ccc(O)cc1)C(=O)O [tyrosine] | could not provide any significant change
12 | N[C@@H](Cc1c[nH]cn1)C(=O)O [histidine] | could not provide any significant change
13 | N[C@@H](CS)C(=O)O [cysteine] | could not provide any significant change
14 | O=C(O)[C@@H]1CCCN1 [proline] | could not provide any significant change
15 | C[C@H](N)C(=O)O [alanine] | could not provide any significant change
16 | NCC(=O)O [glycine] | could not provide any significant change
17 | NCCCC[C@H](N)C(=O)O [lysine] | could not provide any significant change
18 | NC(=O)C[C@H](N)C(=O)O [asparagine] | could not provide any significant change
19 | C[C@@H](O)[C@H](N)C(=O)O [threonine] | could not provide any significant change
20 | N[C@@H](CO)C(=O)O [serine] | could not provide any significant change

Same assay, conditions: 0.5 mM Bt2cAMP; RPMI-1640; high concentration of 20 μM; FIG. 5

Row | Structure (SMILES) | neurite formation promoting effect
21 | CSCC[C@H](N)C(=O)O [L-methionine] | exhibited the neurite formation promoting effect
22 | CSCC[C@@H](N)C(=O)O [D-methionine] | exhibited the neurite formation promoting effect

Same assay, conditions: 0.5 mM Bt2cAMP; amino acid 0.02 or 0.2 μg/mL in RPMI-1640 (FIG. 2), 0.02 μg/mL in Nutrient Mixture F-12 Ham (FIG. 3); 24 hours

Row | Structure (SMILES) | neurite formation promoting effect
23 | CC(C)C[C@H](N)C(=O)O [L-leucine] | could not be recognized
24 | CC[C@H](C)[C@H](N)C(=O)O [L-isoleucine] | could not be recognized
25 | CC(C)[C@H](N)C(=O)O [L-valine] | significantly promoted

From patent US11246849B2, “Nerve growth promoter” (LAIMU CORPORATION, priority 2017, dated 2022)
